Measured values reported in article PMC11032351, “Epigenetic modulation through BET bromodomain inhibitors as a novel therapeutic strategy for progranulin-deficient frontotemporal dementia” (Scientific Reports, 2024).

Tested on: PGRN protein levels
Test: PGRN quantification (Jess) in human NPCs
Assay type: cell-based
Conditions: for increase in PGRN protein levels: 1 µM for 24 h; for increase in PGRN: lysed immediately
Description: PGRN capillary gel electrophoresis experiments were performed using Jess (Bio-Techne) and data were processed and analyzed using Compass for Simple Western software (version 6.0). Runs were conducted using EZ Standard Pack 1 12-230 kDa (Bio-Techne PS-ST01EZ-8), 12-230 kDa pre-filled plates (PS-PP03), 12-230 kDa separation module (SMW004), anti-rabbit HRP detection ([…]-001), and total protein detection modules (DM-TP01, biotin labeling reagent 042-973) according to the manufacturer's instructions, and with anti-PGRN primary (Abcam ab208777) diluted 1:50 in milk-free antibody dilution buffer (043-524). […] All intensity quantifications are normalized to the total protein assay quantification unless otherwise indicated. NPCs were cultured normally in 6-well plates as described previously. Upon reaching confluency, DMSO or MLN-4924 (Cayman #15,217, 10 mM stock in DMSO) were diluted 1:5000 into NPC media with growth factors. 1 mL of media was aspirated from the cell cultures, and 1 mL of MLN-4924 or DMSO dilutions were then added to respective wells (final well concentration: 1 μM MLN-4924 in select wells, 0.01% DMSO for all wells). Plates returned to the incubator. […] Plates returned to the incubator. After 4 h, to the indicated wells is directly added 1 μL 2 mM mivebresib (MedChem Express HY-100015) in DMSO for a final concentration of 1 μM, or 1 μL DMSO. All plates were returned to the incubator overnight. The next day, 24 h from the addition of mivebresib, plates were removed from the incubator, and all wells were washed with 2 mL PBS, and then lysed in 300 μL M-PER lysis buffer with protease inhibitors. Cells were allowed to lyse for 15 min at 4 °C with light nutation, and then lysate was transferred to a 1.5-mL Eppendorf tube which was then spun down at 20 k rcf at 4 °C for 10 min. 200 μL of supernatant was then transferred to a fresh, labeled Eppendorf rube, which was then stored at - 20 °C prior to further analysis. Sample concentration was quantified using the BCA assay as described above, and normalized to 250 μg/mL in M-PER lysis buffer prior to PGRN quantification using the Jess. NPCs were cultured normally as described previously. 6-well plates were seeded at 300,000 cells/well in 2 mL of NPC media with EGF, bFGF, and heparin as described above. Cells were allowed to grow to confluency for three nights at 37 °C with 5% CO2. […] These solutions were then diluted 1:10 in NPC media with growth factors containing 0.2% DMSO to make 100 nM compound solutions. Treatment wells were washed with 2 mL PBS prior to addition of 2 mL NPC media with growth factors containing compound (or DMSO only) at indicated concentrations (3 replicates per condition, 6 DMSO replicates). Plates were then allowed to incubate at 37 °C with 5% CO2 for 24 h. After 24 h, cells were removed from the incubator, washed with 1 mL PBS, and then lysed with 500 μL M-PER lysis buffer (Thermo Fisher #78,501) with 1 cOmplete Mini, EDTA-free protease inhibitor added (Sigma-Aldrich#11,836,170,001) per 15 mL lysis buffer. Plates were allowed to nutate at 4 °C for 15 min before transferring the lysate to 1.5 mL Eppendorf tubes, which were then spun down at 20,000 rcf at 4 °C for 10 min. 400 μL of the supernatant was then transferred to fresh 1.5-mL Eppendorf tubes, which were then frozen down at - 80 °C prior to further use. Samples were removed from the - 80 °C and concentrations were determined via BCA assay (Thermo Scientific #23,227) using a pre-diluted BSA standard (Life Technologies #23,208) on a 96-well polystyrene plate (Thermo Fisher #12,565,500). Samples were diluted to 0.25 mg/mL using M-PER lysis buffer prior to PGRN quantification using the Jess. NPCs were cultured as described above, and seeded onto coated 24-well plates at 150,000 cells/well in 1 mL NPC media with growth factors. Plates were allowed to grow to ~ 100% confluency for three nights at 37 °C with 5% CO2. […] Plates were allowed to incubate overnight at 37 °C with 5% CO2 for 24 h. […]

SMILES	increase in PGRN protein levels	also measured
Cn1ccc2c(-c3cccnc3Oc3ccc(F)cc3)c[nH]c2c1=O [Compound 18B, 3-[2-(4-fluorophenoxy)pyridin-3-yl]-6-methyl-1,6-dihydro-7H-pyrrolo[2,3-c]pyridin-7-one]	significantly enhance PGRN protein levels	
Cn1cc(-c2cccnc2Oc2ccc(F)cc2)c2cc[nH]c2c1=O [Compound 18A, 4-(2-(4-fluorophenoxy)pyridin-3-yl)-6-methyl-1H-pyrrolo[2,3-c]pyridin-7(6H)-one]	> twofold	
Cn1ccc2c(-c3cc(F)cnc3Oc3ccc(F)cc3)c[nH]c2c1=O [Compound 86B, 3-(5-fluoro-2-(4-fluorophenoxy)pyridin-3-yl)-6-methyl-1,6-dihydro-7H-pyrrolo[2,3-c]pyridin-7-one]	unable to upregulate PGRN	
CCS(=O)(=O)Nc1ccc(Oc2ccc(F)cc2F)c(-c2cn(C)c(=O)c3[nH]ccc23)c1 [mivebresib]		enhancement of PGRN protein levels (100 nM, 24 h): ~ 120%; enhancement of PGRN protein levels after washout (1 µM for 2 h, then 22 h of incubation post-washout): > twofold; enhancement of PGRN protein levels after washout (1 µM for 8 h, washout, lysis 24 h from compound addition): more pronounced effect; Normalized PGRN (Fold-DMSO) (1 µM mivebresib 24 h, vs matching bar without mivebresib): 1.82 x; Normalized PGRN (Fold-DMSO) (1 µM mivebresib 24 h with 300 nM dBET6): 1.26 x; Normalized PGRN (Fold-DMSO) (1 µM mivebresib 24 h with 1 µM MLN-4924 and 300 nM dBET6): 1.47 x; increase in PGRN (1 µM, 8 h): ~ 1.4 fold; enhancement of PGRN protein levels (1 µM, 24 h): ~140%; increase in PGRN (1 µM, 24 h): ~ 2.7 fold
Cn1ccc2c(-c3cccnc3Oc3ccc(F)c(F)c3)c[nH]c2c1=O [Compound 81B, 3-(2-(3,4-difluorophenoxy)pyridin-3-yl)-6-methyl-1,6-dihydro-7H-pyrrolo[2,3-c]pyridin-7-one]	significantly enhance PGRN protein levels	
Cn1ccc2c(-c3cccnc3Sc3ccc(F)cc3)c[nH]c2c1=O [Compound 84B, 3-(2-((4-fluorophenyl)thio)pyridin-3-yl)-6-methyl-1,6-dihydro-7H-pyrrolo[2,3-c]pyridin-7-one]	significantly enhance PGRN protein levels	
Cn1ccc2c(-c3cccnc3Nc3ccc(F)cc3)c[nH]c2c1=O [Compound 85B, 3-(2-((4-fluorophenyl)amino)pyridin-3-yl)-6-methyl-1,6-dihydro-7H-pyrrolo[2,3-c]pyridin-7-one]	unable to upregulate PGRN	
Cn1ccc2c(-c3cccnc3Oc3cc(F)cc(F)c3)c[nH]c2c1=O [Compound 82B, 3-(2-(3,5-difluorophenoxy)pyridin-3-yl)-6-methyl-1,6-dihydro-7H-pyrrolo[2,3-c]pyridin-7-one]	significantly enhance PGRN protein levels	
Cn1cc(-c2cccnc2Sc2ccc(F)cc2)c2cc[nH]c2c1=O [Compound 84A, 4-(2-((4-fluorophenyl)thio)pyridin-3-yl)-6-methyl-1,6-dihydro-7H-pyrrolo[2,3-c]pyridin-7-one]	less substantial response	
Cn1cc(-c2cccnc2Oc2ccc(F)c(F)c2)c2cc[nH]c2c1=O [Compound 81A, 4-(2-(3,4-difluorophenoxy)pyridin-3-yl)-6-methyl-1,6-dihydro-7H-pyrrolo[2,3-c]pyridin-7-one]	> twofold	
Cn1cc(-c2cccnc2Oc2cc(F)cc(F)c2)c2cc[nH]c2c1=O [Compound 82A, 4-(2-(3,5-difluorophenoxy)pyridin-3-yl)-6-methyl-1,6-dihydro-7H-pyrrolo[2,3-c]pyridin-7-one]	> twofold	
Cn1cc(-c2cc(F)cnc2Oc2ccc(F)cc2)c2cc[nH]c2c1=O [Compound 86A, 4-(5-fluoro-2-(4-fluorophenoxy)pyridin-3-yl)-6-methyl-1,6-dihydro-7H-pyrrolo[2,3-c]pyridin-7-one]	less substantial response	
Cn1cc(-c2cccnc2Nc2ccc(F)cc2)c2cc[nH]c2c1=O [Compound 85A, 4-(2-((4-fluorophenyl)amino)pyridin-3-yl)-6-methyl-1,6-dihydro-7H-pyrrolo[2,3-c]pyridin-7-one]	> twofold	
